These results are taken from PubChem BioAssay (NCI).

Test systems include COLO 205 colon; HOP-62 NSCLC; LOX IMVI melanoma; MDA-MB-231 breast; MOLT-4 leukemia; NCI-H522 lung; PC-3 prostate; RXF 393 renal; SF-295 CNS; SNB-75 CNS.
Experiment in all cases: growth of human tumour cells (NCI), 48 h

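Following 48 hours of exposure in 96-well plates, responses at five concentrations were used to interpolate endpoints linearly. At the GI50, growth is halved. At the TGI there is no net growth.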 Where only a bound is given, the exact number is not on record here.

Regarding `CC(=O)c1cc2c(s1)C(=O)c1ccccc1C2=O`, the TGI in the assay on COLO 205 colon was 28.9 µM; in the assay on HOP-62 NSCLC it was > 100 µM; in the assay with LOX IMVI melanoma, 15 µM; with MDA-MB-231 breast it was 41.8 µM; in the assay on MOLT-4 leukemia, 8.67 µM; in the assay on NCI-H522 lung, 3.5 µM. Besides, the TGI in the assay with PC-3 prostate is > 100 µM; in the assay on RXF 393 renal, 28 µM; with SF-295 CNS, 8.99 µM; with SNB-75 CNS, 23.1 µM.

Take `CSc1cc(N)ccc1N=Nc1ccc(S(N)(=O)=O)cc1`: the TGI in the assay with COLO 205 colon was 71.3 µM; in the assay with HOP-62 NSCLC it was 79 µM; with LOX IMVI melanoma it was > 100 µM; in the assay on MDA-MB-231 breast, 57.9 µM; with MOLT-4 leukemia, > 100 µM; in the assay on NCI-H522 lung it was 43.7 µM. The TGI was > 100 µM with PC-3 prostate, > 100 µM in the assay on RXF 393 renal, 56.6 µM with SF-295 CNS and 59.8 µM in the assay with SNB-75 CNS.

On to `Cc1c(NC2(C)C(=O)N(/N=C/c3ccccc3)N=C2c2ccccc2)n[nH]c1-c1ccccc1` (stereo not given), for which the TGI in the assay on COLO 205 colon, in the assay with HOP-62 NSCLC, in the assay with LOX IMVI melanoma, in the assay with MDA-MB-231 breast, with MOLT-4 leukemia and with NCI-H522 lung was > 100 µM each time. Moreover, the TGI in the assay with PC-3 prostate, with RXF 393 renal, in the assay on SF-295 CNS and in the assay with SNB-75 CNS was > 100 µM in each case.

Consider `COc1ccc(C2C(C#N)=C(S)N(C3OC(CO)C(O)C(O)C3O)C(c3ccccc3)=C2C(C)=O)cc1` (stereo not given), for which the TGI in the assay on COLO 205 colon was > 100 µM; in the assay on HOP-62 NSCLC it was > 100 µM; in the assay with LOX IMVI melanoma, > 100 µM; in the assay on MDA-MB-231 breast it was > 100 µM; in the assay with MOLT-4 leukemia, > 100 µM; in the assay on NCI-H522 lung it was 88.9 µM. The TGI was > 100 µM in the assay with PC-3 prostate, > 100 µM in the assay with RXF 393 renal, > 100 µM with SF-295 CNS and 97 µM with SNB-75 CNS.

With `C[C@]12CC[C@@H]3c4ccc(OC(=O)c5ccccc5)cc4CC[C@H]3[C@@H]1CC[C@@H]2Oc1c2ccccc2nc2ccccc12`, the TGI was > 50 µM in the assay with COLO 205 colon; 15.7 µM in the assay on HOP-62 NSCLC; 15.6 µM in the assay on LOX IMVI melanoma; 35.2 µM with MDA-MB-231 breast; 26.7 µM with MOLT-4 leukemia; 46 µM in the assay on NCI-H522 lung. Further, the TGI with PC-3 prostate is 17.7 µM; in the assay with RXF 393 renal, 15.8 µM; in the assay on SF-295 CNS, > 50 µM; with SNB-75 CNS, 18.2 µM.

Take `COC(=O)[C@@H]1C[C@@]2(C3C=CN(C(=O)C(F)(F)F)C=C3)c3ccccc3N(C(=O)C(F)(F)F)[C@H]2N1C(=O)OC`: the TGI with COLO 205 colon, in the assay with HOP-62 NSCLC, in the assay on LOX IMVI melanoma, in the assay with MDA-MB-231 breast, in the assay with MOLT-4 leukemia and in the assay with NCI-H522 lung was > 100 µM each time. The TGI in the assay with PC-3 prostate is > 100 µM; in the assay with RXF 393 renal, 60.4 µM; in the assay with SF-295 CNS it was > 100 µM; with SNB-75 CNS, > 100 µM.

For the compound `COc1c(C)c(OC)c2c(c1O)[C@@H]1[C@@H]3Cc4c(OC)c(C)c(OC)c(O)c4[C@H](CNC(=O)c4cnc5ccccc5n4)N3[C@@H](C#N)[C@H](C2)N1C`, the TGI was 0.0114 µM with COLO 205 colon; > 0.1 µM in the assay on HOP-62 NSCLC; > 0.0273 µM with LOX IMVI melanoma; 0.032 µM in the assay with MDA-MB-231 breast; 0.00262 µM in the assay with MOLT-4 leukemia; 0.00516 µM in the assay on NCI-H522 lung. For the same compound, the TGI in the assay on PC-3 prostate is > 0.0556 µM; with RXF 393 renal, > 0.0368 µM; in the assay with SF-295 CNS, > 0.0294 µM; with SNB-75 CNS it was 0.00552 µM.

Consider `COc1ccc2nc3cc(Cl)ccc3c(NCCNCCCNC(=O)c3cc(-c4ccccc4)nc4ccccc34)c2c1`, for which the TGI in the assay with COLO 205 colon, in the assay with HOP-62 NSCLC, in the assay with LOX IMVI melanoma, with MDA-MB-231 breast, in the assay on MOLT-4 leukemia and with NCI-H522 lung was > 100 µM in each case. Moreover, the TGI in the assay with PC-3 prostate, in the assay on RXF 393 renal, with SF-295 CNS and in the assay on SNB-75 CNS was > 100 µM each time.

Regarding `S=C(S)NCC1CCC(CNC(=S)S)CC1` (stereo not given), the TGI with COLO 205 colon was > 100 µM; in the assay with HOP-62 NSCLC it was 42.9 µM; in the assay with LOX IMVI melanoma it was 40.8 µM; in the assay with MDA-MB-231 breast it was 70.1 µM; in the assay on MOLT-4 leukemia, 65.2 µM; in the assay on NCI-H522 lung, 28 µM. Besides, the TGI in the assay on PC-3 prostate is 37.5 µM; with RXF 393 renal, 40.6 µM; with SF-295 CNS it was > 100 µM; in the assay on SNB-75 CNS it was > 100 µM.

For `C/C(O)=C/c1nc2ccc([N+](=O)[O-])cc2nc1/C=C(/C)O`, the TGI is > 100 µM in the assay with COLO 205 colon; > 100 µM in the assay on HOP-62 NSCLC; > 100 µM with LOX IMVI melanoma; > 100 µM with MDA-MB-231 breast; 72.2 µM with MOLT-4 leukemia; 70 µM in the assay on NCI-H522 lung. In addition, the TGI with PC-3 prostate, in the assay with RXF 393 renal, in the assay with SF-295 CNS and in the assay with SNB-75 CNS was > 100 µM throughout.

`Cn1c2ccccc2c2c3c(c4c5ccccc5n(C)c4c21)C(=O)c1ccccc1C3=O`: the TGI was > 100 µM in the assay with COLO 205 colon; > 100 µM in the assay on HOP-62 NSCLC; > 100 µM with LOX IMVI melanoma; 79.1 µM in the assay with MDA-MB-231 breast; > 100 µM with MOLT-4 leukemia; 68.2 µM in the assay with NCI-H522 lung. Besides, the TGI in the assay on PC-3 prostate is > 100 µM; with RXF 393 renal, 48.6 µM; in the assay on SF-295 CNS, > 100 µM; with SNB-75 CNS it was > 100 µM.

On to `COC(=O)[C@@]12CCCC(=O)[C@@H]1[C@H]1CCCC[C@H]12`, for which the TGI with COLO 205 colon, in the assay on HOP-62 NSCLC, with LOX IMVI melanoma, in the assay on MDA-MB-231 breast, in the assay on MOLT-4 leukemia and in the assay on NCI-H522 lung was > 100 µM throughout. Also, the TGI in the assay on PC-3 prostate, in the assay on RXF 393 renal, with SF-295 CNS and with SNB-75 CNS was > 100 µM each time.

For the compound `O=c1[nH]c(Nc2cccc(Cl)c2)nc2nc[nH]c12`, the TGI with COLO 205 colon, in the assay with HOP-62 NSCLC, with LOX IMVI melanoma, with MDA-MB-231 breast, in the assay with MOLT-4 leukemia and in the assay on NCI-H522 lung was > 100 µM each time. Besides, the TGI with PC-3 prostate, in the assay with RXF 393 renal, in the assay on SF-295 CNS and with SNB-75 CNS was > 100 µM in each case.

For `CC(=O)N1CCN(C23OC4(N5CCN(C(C)=O)CC5)C5C6CC(C7C6C4C72)C53)CC1` (stereo not given), the TGI with COLO 205 colon, in the assay with HOP-62 NSCLC, in the assay with LOX IMVI melanoma, in the assay with MDA-MB-231 breast, in the assay on MOLT-4 leukemia and in the assay with NCI-H522 lung was > 100 µM throughout. The TGI in the assay with PC-3 prostate, with RXF 393 renal, in the assay with SF-295 CNS and in the assay with SNB-75 CNS was > 100 µM in each case.

For the compound `COc1ccc(C(=O)N2c3ccccc3Sc3ccccc32)c(C(F)(F)F)c1`, the GI50 with COLO 205 colon is 0.319 µM; in the assay on HOP-62 NSCLC, 0.684 µM; with LOX IMVI melanoma it was 0.516 µM; with MDA-MB-231 breast it was 1.16 µM; with MOLT-4 leukemia, 0.406 µM; with NCI-H522 lung it was 0.32 µM. The GI50 in the assay with PC-3 prostate was 0.426 µM; in the assay on RXF 393 renal it was 0.362 µM; in the assay with SF-295 CNS, 0.372 µM; in the assay with SNB-75 CNS it was 0.264 µM. In addition, the TGI with COLO 205 colon is 1.48 µM; in the assay with HOP-62 NSCLC it was > 100 µM; in the assay with LOX IMVI melanoma, > 100 µM; with MDA-MB-231 breast, 92.2 µM; in the assay with MOLT-4 leukemia it was > 100 µM; in the assay with NCI-H522 lung, 14.5 µM. Also, the TGI in the assay with PC-3 prostate, with RXF 393 renal, with SF-295 CNS and in the assay on SNB-75 CNS was > 100 µM throughout.

As to `CN(Cc1cnc2nc(N)nc(N)c2n1)c1ccc(C(=O)NC(CCC(=O)NC(P(=O)(O)O)P(=O)(O)O)C(=O)O)cc1` (stereo not given), the TGI in the assay with COLO 205 colon, with HOP-62 NSCLC, with LOX IMVI melanoma, in the assay on MDA-MB-231 breast, with MOLT-4 leukemia and with NCI-H522 lung was > 100 µM in each case. Further, the TGI in the assay on PC-3 prostate, in the assay with RXF 393 renal, with SF-295 CNS and in the assay with SNB-75 CNS was > 100 µM throughout.

Regarding `O=c1[nH]nc(Cc2ccccc2)n1-n1cnnc1`, the TGI with COLO 205 colon, with HOP-62 NSCLC, in the assay with LOX IMVI melanoma, with MDA-MB-231 breast, in the assay with MOLT-4 leukemia and in the assay on NCI-H522 lung was > 100 µM throughout. Also, the TGI with PC-3 prostate, in the assay on RXF 393 renal, with SF-295 CNS and in the assay on SNB-75 CNS was > 100 µM each time.

With `[N-]=[N+]=Nc1ccc(CNc2cc(=O)[nH]c(=O)[nH]2)cc1`, the TGI with COLO 205 colon, with HOP-62 NSCLC, in the assay with LOX IMVI melanoma, in the assay with MDA-MB-231 breast, with MOLT-4 leukemia and with NCI-H522 lung was > 100 µM each time. For the same compound, the TGI with PC-3 prostate, with RXF 393 renal, with SF-295 CNS and in the assay with SNB-75 CNS was > 100 µM in each case.

On to `Cc1c2c(OCCCCN3CCN(c4ncccn4)CC3)nn(C)c(=O)c2c(C)n1-c1ccccc1`, for which the TGI in the assay with COLO 205 colon was found to be 34.8 µM; in the assay with HOP-62 NSCLC, 57.8 µM; with LOX IMVI melanoma, 44.5 µM; with MDA-MB-231 breast, 30.7 µM; with MOLT-4 leukemia it was 84.6 µM; with NCI-H522 lung it was 38.2 µM. Besides, the TGI in the assay with PC-3 prostate was 37.3 µM; with RXF 393 renal, 41.8 µM; in the assay on SF-295 CNS, 32.4 µM; in the assay on SNB-75 CNS, 39.4 µM.
